According to patent US20240124417A1, “COMPOUNDS USEFUL AS IMMUNOMODULATORS” (Bristol-Myers Squibb Company, priority 2019, published 2024):

These compounds were tested against T1, PD-1/PD-L1 (Homo sapiens, UniProt Q9NZQ7) (assay: PD-1/PD-L1 Homogenous Time-Resolved Fluorescence (HTRF) binding assay). Conditions: PD-L1-His 10 nM, PD-1-Ig 20 nM.
T1 construct: TVMV protease site linker (C); made in house; host or cells: HEK293T cells
Summary of the method: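 Inhibitors pre-incubated 15 min with PD-L1-His extracellular domain (10 nM final) in dPBS with 0.1% BSA and 0.05% Tween-20, then PD-1-Ig (20 nM final) added for a further 15 min. Read-out by HTRF with europium cryptate anti-Ig (1 nM) and APC anti-His (20 nM). Related pairs: PD-1-Ig/PD-L2-His (20/5 nM), CD80-His/PD-L1-Ig (100/10 nM).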

T1 sequence (Q9NZQ7 18-239): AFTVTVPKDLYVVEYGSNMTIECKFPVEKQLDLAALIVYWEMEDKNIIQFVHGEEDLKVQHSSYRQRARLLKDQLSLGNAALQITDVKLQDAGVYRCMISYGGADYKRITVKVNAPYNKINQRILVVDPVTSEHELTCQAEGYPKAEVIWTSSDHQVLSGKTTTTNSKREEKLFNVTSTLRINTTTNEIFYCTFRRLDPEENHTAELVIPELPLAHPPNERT

Row | IC50 | SMILES
1 | 1.4 nM | Cc1c(COc2cc(OCc3cncc(C#N)c3)c(CNCc3ccnc(C#N)n3)cc2Cl)cccc1-c1cccc(OCCCN2CCC(O)(CO)CC2)c1Cl [Example 2044, 4-(((5-chloro-4-((2′-chloro-3′-(3-(4-hydroxy-4-(hydroxymethyl)piperidin-1-yl)propoxy)-2-methyl-[1,1′-biphenyl]-3-yl)methoxy)-2-((5-cyanopyridin-3-yl)methoxy)benzyl)amino)methyl)pyrimidine-2-carbonitrile]
2 | 16.4 nM | Cc1c(COc2cc(OCc3cncc(C#N)c3)c(CN(C)Cc3ccnc(C#N)n3)cc2Cl)cccc1-c1cccc(OCCCN2CC[C@@H](O)C2)c1C [Example 2045, (R)-4-(((5-chloro-2-((5-cyanopyridin-3-yl)methoxy)-4-((3′-(3-(3-hydroxypyrrolidin-1-yl)propoxy)-2,2′-dimethyl-[1,1′-biphenyl]-3-yl)methoxy)benzyl) (methyl)amino)methyl)pyrimidine-2-carbonitrile]
3 | 32.3 nM | Cc1c(COc2cc(OCc3cncc(C#N)c3)c(CNCc3cncs3)cc2Cl)cccc1-c1cccc(OC2CCN(C)CC2)c1Cl [Example 2046, 5-((4-chloro-5-((2′-chloro-2-methyl-3′-((1-methylpiperidin-4-yl)oxy)-[1,1′-biphenyl]-3-yl)methoxy)-2-(((thiazol-5-ylmethyl)amino)methyl)phenoxy)methyl)nicotinonitrile]
4 | 3.5 nM | Cc1c(COc2cc(OCc3cncc(C#N)c3)c(CNCc3cnc[nH]3)cc2Cl)cccc1-c1cccc(OC2CCN(C)CC2)c1Cl [Example 2047, 5-((2-((((1H-imidazol-5-yl)methyl)amino)methyl)-4-chloro-5-((2′-chloro-2-methyl-3′-((1-methylpiperidin-4-yl)oxy)-[1,1′-biphenyl]-3-yl)methoxy)phenoxy)methyl)nicotinonitrile]
5 | 355 nM | Cc1c(COc2cc(OCc3cncc(C#N)c3)c(CN(C)Cc3cncs3)cc2Cl)cccc1-c1cccc(OC2CCN(C)CC2)c1Cl [Example 2048, 5-((4-chloro-5-((2′-chloro-2-methyl-3′-((1-methylpiperidin-4-yl)oxy)-[1,1′-biphenyl]-3-yl)methoxy)-2-((methyl(thiazol-5-ylmethyl)amino)methyl)phenoxy)methyl)nicotinonitrile]
6 | 1.6 nM | Cc1c(COc2cc(OCc3cncc(C#N)c3)c(CN(C)Cc3cnc[nH]3)cc2Cl)cccc1-c1cccc(OC2CCN(C)CC2)c1Cl [Example 2049, 5-((2-((((1H-imidazol-5-yl)methyl)(methyl)amino)methyl)-4-chloro-5-((2′-chloro-2-methyl-3′-((1-methylpiperidin-4-yl)oxy)-[1,1′-biphenyl]-3-yl)methoxy)phenoxy)methyl)nicotinonitrile]
7 | 1.7 nM | Cc1c(COc2cc(OCc3cncnc3)c(CNCc3ncc[nH]3)cc2Cl)cccc1-c1cccc(OCCCN2CC[C@@H](O)C2)c1C [Example 2050, (R)-1-(3-((3′-((4-((((1H-imidazol-2-yl)methyl)amino)methyl)-2-chloro-5-(pyrimidin-5-ylmethoxy)phenoxy)methyl)-2,2′-dimethyl-[1,1′-biphenyl]-3-yl)oxy)propyl)pyrrolidin-3-ol]
8 | 2 nM | Cc1c(COc2cc(OCc3cncnc3)c(CNCc3cn[nH]c3)cc2Cl)cccc1-c1cccc(OCCCN2CC[C@@H](O)C2)c1C [Example 2051, (R)-1-(3-((3′-((4-((((1H-pyrazol-4-yl)methyl)amino)methyl)-2-chloro-5-(pyrimidin-5-ylmethoxy)phenoxy)methyl)-2,2′-dimethyl-[1,1′-biphenyl]-3-yl)oxy)propyl)pyrrolidin-3-ol]
9 | 9.6 nM | Cc1c(COc2cc(OCc3cncc(C#N)c3)c(CNCc3cn[nH]c3)cc2Cl)cccc1-c1cccc(OC2CCC(N3CCCC3)CC2)c1Cl (stereo not shown) [Example 2052, 5-((2-((((1H-pyrazol-4-yl)methyl)amino)methyl)-4-chloro-5-((2′-chloro-2-methyl-3′-((4-(pyrrolidin-1-yl)cyclohexyl)oxy)-[1,1′-biphenyl]-3-yl)methoxy)phenoxy)methyl)nicotinonitrile]
10 | 2.9 nM | Cc1c(COc2cc(OCc3cncc(C#N)c3)c(CNCc3ncc[nH]3)cc2Cl)cccc1-c1cccc(OC2CCC(N3CCCC3)CC2)c1Cl (stereo not shown) [Example 2053, 5-((2-((((1H-imidazol-2-yl)methyl)amino)methyl)-4-chloro-5-((2′-chloro-2-methyl-3′-((4-(pyrrolidin-1-yl)cyclohexyl)oxy)-[1,1′-biphenyl]-3-yl)methoxy)phenoxy)methyl)nicotinonitrile]
11 | 5.6 nM | Cc1c(COc2cc(OCc3cccnn3)c(CNCc3cn[nH]c3)cc2Cl)cccc1-c1cccc(OCC2CCCN(C)C2)c1Cl (stereo not shown) [Example 2054, N-((1H-pyrazol-4-yl)methyl)-1-(5-chloro-4-((2′-chloro-2-methyl-3′-((1-methylpiperidin-3-yl)methoxy)-[1,1′-biphenyl]-3-yl)methoxy)-2-(pyridazin-3-ylmethoxy)phenyl)methanamine]
12 | 3.1 nM | Cc1c(COc2cc(OCc3cccnn3)c(CNCc3ncc[nH]3)cc2Cl)cccc1-c1cccc(OCC2CCCN(C)C2)c1Cl (stereo not shown) [Example 2055, N-((1H-imidazol-2-yl)methyl)-1-(5-chloro-4-((2′-chloro-2-methyl-3′-((1-methylpiperidin-3-yl)methoxy)-[1,1′-biphenyl]-3-yl)methoxy)-2-(pyridazin-3-ylmethoxy)phenyl)methanamine]
13 | 3.5 nM | COc1cc(OCc2cccc(-c3cccc(OCC4CCCN(C)C4)c3Cl)c2C)c(Cl)cc1CNCc1cn[nH]c1 (stereo not shown) [Example 2056, N-((1H-pyrazol-4-yl)methyl)-1-(5-chloro-4-((2′-chloro-2-methyl-3′-((1-methylpiperidin-3-yl)methoxy)-[1,1′-biphenyl]-3-yl)methoxy)-2-methoxyphenyl)methanamine]
14 | 6.3 nM | COc1cc(OCc2cccc(-c3cccc(OCC4CCCN(C)C4)c3Cl)c2C)c(Cl)cc1CNCc1ncc[nH]1 (stereo not shown) [Example 2057, N-((1H-imidazol-2-yl)methyl)-1-(5-chloro-4-((2′-chloro-2-methyl-3′-((1-methylpiperidin-3-yl)methoxy)-[1,1′-biphenyl]-3-yl)methoxy)-2-methoxyphenyl)methanamine]
15 | 3.9 nM | Cc1c(COc2cc(OCc3cnccn3)c(CNCc3cccnn3)cc2Cl)cccc1-c1cccc(OCC2CCCN(C)C2)c1Cl (stereo not shown) [Example 2058, N-(5-chloro-4-((2′-chloro-2-methyl-3′-((1-methylpiperidin-3-yl)methoxy)-[1,1′-biphenyl]-3-yl)methoxy)-2-(pyrazin-2-ylmethoxy)benzyl)-1-(pyridazin-3-yl)methanamine]
16 | 4.4 nM | Cc1c(COc2cc(OCc3cnccn3)c(CNCc3ncccn3)cc2Cl)cccc1-c1cccc(OCC2CCCN(C)C2)c1Cl (stereo not shown) [Example 2059, N-(5-chloro-4-((2′-chloro-2-methyl-3′-((1-methylpiperidin-3-yl)methoxy)-[1,1′-biphenyl]-3-yl)methoxy)-2-(pyrazin-2-ylmethoxy)benzyl)-1-(pyrimidin-2-yl)methanamine]
17 | 1.9 nM | Cc1c(COc2cc(OCc3cnccn3)c(CNCc3c[nH]cn3)cc2Cl)cccc1-c1cccc(OCC2CCCN(C)C2)c1Cl (stereo not shown) [Example 2060, N-((1H-imidazol-4-yl)methyl)-1-(5-chloro-4-((2′-chloro-2-methyl-3′-((1-methylpiperidin-3-yl)methoxy)-[1,1′-biphenyl]-3-yl)methoxy)-2-(pyrazin-2-ylmethoxy)phenyl)methanamine]
18 | 16.9 nM | Cc1c(COc2cc(OCc3cncc(C#N)c3)c(CNCc3cccnn3)cc2Cl)cccc1-c1cccc(OCc2cncnc2)c1Cl [Example 2061, 5-((4-chloro-5-((2′-chloro-2-methyl-3′-(pyrimidin-5-ylmethoxy)-[1,1′-biphenyl]-3-yl)methoxy)-2-(((pyridazin-3-ylmethyl)amino)methyl)phenoxy)methyl)nicotinonitrile]
19 | 7.6 nM | Cc1c(COc2cc(OCc3cncc(C#N)c3)c(CNCc3c[nH]cn3)cc2Cl)cccc1-c1cccc(OCc2cncnc2)c1Cl [Example 2062, 5-((2-((((1H-imidazol-4-yl)methyl)amino)methyl)-4-chloro-5-((2′-chloro-2-methyl-3′-(pyrimidin-5-ylmethoxy)-[1,1′-biphenyl]-3-yl)methoxy)phenoxy)methyl)nicotinonitrile]
20 | 28.5 nM | Cc1c(COc2cc(OCc3cncc(C#N)c3)c(CNCc3ncccn3)cc2Cl)cccc1-c1cccc(OCc2cncnc2)c1Cl [Example 2063, 5-((4-chloro-5-((2′-chloro-2-methyl-3′-(pyrimidin-5-ylmethoxy)-[1,1′-biphenyl]-3-yl)methoxy)-2-(((pyrimidin-2-ylmethyl)amino)methyl)phenoxy)methyl)nicotinonitrile]
21 | 179 nM | Cc1c(COc2cc(OCc3cncc(C#N)c3)c(CNCc3cccnn3)cc2Cl)cccc1-c1cccc(OCC2CCCN(CCC(F)(F)F)C2)c1Cl (stereo not shown) [Example 2064, 5-((4-chloro-5-((2′-chloro-2-methyl-3′-((1-(3,3,3-trifluoropropyl)piperidin-3-yl)methoxy)-[1,1′-biphenyl]-3-yl)methoxy)-2-(((pyridazin-3-ylmethyl)amino)methyl)phenoxy)methyl)nicotinonitrile]
22 | 28 nM | Cc1c(COc2cc(OCc3cncc(C#N)c3)c(CNCc3c[nH]cn3)cc2Cl)cccc1-c1cccc(OCC2CCCN(CCC(F)(F)F)C2)c1Cl (stereo not shown) [Example 2065, 5-((2-((((1H-imidazol-4-yl)methyl)amino)methyl)-4-chloro-5-((2′-chloro-2-methyl-3′-((1-(3,3,3-trifluoropropyl)piperidin-3-yl)methoxy)-[1,1′-biphenyl]-3-yl)methoxy)phenoxy)methyl)nicotinonitrile]
